One data set concerns the target T1, OCT1 (Homo sapiens, UniProt O15245).
T1 construct: containing the full length SLC22A1 cDNA (NM_003057) encoding the human OCT1 protein; expressed in transfected cells
T1 sequence (O15245 1-554): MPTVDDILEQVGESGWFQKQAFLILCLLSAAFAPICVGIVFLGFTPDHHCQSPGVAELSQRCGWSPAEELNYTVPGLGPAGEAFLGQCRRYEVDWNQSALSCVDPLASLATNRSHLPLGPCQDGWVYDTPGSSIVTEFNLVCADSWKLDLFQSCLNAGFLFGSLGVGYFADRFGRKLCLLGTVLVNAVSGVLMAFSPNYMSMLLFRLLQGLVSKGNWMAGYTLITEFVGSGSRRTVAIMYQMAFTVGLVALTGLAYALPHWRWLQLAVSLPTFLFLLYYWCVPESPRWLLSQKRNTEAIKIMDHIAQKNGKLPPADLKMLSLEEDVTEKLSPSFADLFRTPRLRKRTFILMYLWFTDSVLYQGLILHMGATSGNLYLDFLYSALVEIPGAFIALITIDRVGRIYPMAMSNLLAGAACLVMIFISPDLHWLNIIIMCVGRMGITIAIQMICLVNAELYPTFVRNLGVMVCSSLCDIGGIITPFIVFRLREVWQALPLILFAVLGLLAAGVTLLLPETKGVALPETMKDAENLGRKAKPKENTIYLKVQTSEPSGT
Put plainly: Flow cytometric ASP+-uptake inhibition, HEK-OCT1. Format: cell-based. The conditions noted are these: for IC50: IC50, inhibition of ASP+-uptake, HEK-OCT1, 1 μM ASP+, ± SEM (N = 3). The protocol: The previously described fluorescent substrate of organic cation transporters, 4-(4-dimethylaminostyryl)-N-methylpyridinium (ASP^+), was used to determine the function of OCT1 and OCT3 by flow cytometry in the absence and the presence of bendamustine and selected bendamustine esters. HEK293 cells expressing the transporter of interest were trypsinized and washed twice with PBS, prior to re-suspension of 0.5 · 10^6 cells in 500 μL of PBS containing 2% (v/v) FCS. The cells were incubated with ASP^+ (100 μM stock solution in PBS containing 10% DMSO) for 5 minutes, allowing for cellular accumulation, and subsequently analyzed with a FACSCalibur flow cytometer. ASP^+ was excited at 488 nm and the fluorescence was measured using a 530/30 nm and a 585/42 band-pass filter. At least 1 · 10^4 single cells were analyzed by appropriate FSC/SSC gating.
The cells were pre-incubated with the respective test compound at different concentrations at room temperature for 10 minutes. Afterwards, ASP^+ was added to a final concentration of 1 μM, and the samples were incubated at 37°C in the dark for 5 minutes. Subsequently, the cells were washed, re-suspended in ice-cold PBS/FCS and stored on ice in the dark until measurement.
The normalized mean fluorescence intensities of the OCT expressing cells, set to 100% in the absence of an inhibitor, were calculated by subtracting the mean fluorescence intensity of unspecific ASP^+ uptake into HEK-Co control cells. The normalized fluorescence intensities in the presence of an inhibitor were plotted against the logarithm of the concentrations of the test compounds to calculate IC50 values. The “log (inhibitor) vs. normalized response-variable slope” equation of GraphPad Prism 5.01 was used for this purpose.
(In general: Flow cytometry measures light scatter and fluorescence of single cells or particles in a stream.)

Data set [1] concerns Capan-1 cells (pancreatic adenocarcinoma). Put plainly: Chemosensitivity assay (crystal violet assay), Capan-1. The following applies: 96 hours of incubation, mean ± SEM. Type of data set: cell-based, human. The protocol:
Depending on the characteristics of the cells, two different assays were performed. For adherently growing cells (HaCaT, HT-29, NCI-H460, SK-MEL-3, MG-63, Capan-1), cytotoxic and cytocidal effects were determined in the crystal violet assay, whereas for loosely adherent cells (LNCaP, SK-ES-1) and cells growing in suspension (HEL 92.1.7, Jurkat, U-937) the MTT-assay was used with minor modifications. In brief, 1.5 · 10^3 (HaCaT, HT-29, NCI-H460, SK-MEL-3, MG-63, Capan-1) or 5 · 10^3 (Jurkat, U-937, HEL92.1.7, LNCaP, SK-ES-1) cells per well were seeded into flat-bottom 96-well plates (Sarstedt, Nümbrecht, Germany). All compounds were used as solutions prepared in DMSO and tested at final concentrations (8 replicates per concentration) of 1, 3, 10, 30 and 50 μM. In case of the vehicle control and test compounds, the final DMSO concentration amounted to 0.1%. Absorbance was measured at 580 nm in a 96-well plate reader (GENios pro microplate reader, Tecan, Salzburg, Austria). Effects were quantified as previously described for both assays.

A further data set deals with p53 in HT-29 cells. Put plainly: p53 expression by immunoblotting, HT-29. The following applies: HT-29 nuclear extracts; 10 μM; 24 hours. Format: cell-based, human. The protocol:
The expression of the tumor suppressor p53 by NCI-H460 and HT-29 cells was determined after incubating the cells with compounds 1, 2, 4 and 5 at different concentrations for 24 hours. The cells (from a 10-cm culture dish, 70% confluency) were washed twice with PBS and harvested by scraping after addition of ice-cold buffer A (10 mM HEPES pH = 7.9, 10 mM KCl, 0.1 mM EDTA, 0.1 mM EGTA, protease inhibitor mix (Sigma-Aldrich)). After adding Nonidet P-40 (NP-40) (Sigma, Taufkirchen, Germany) to a final concentration of 1%, the cell suspensions were vortexed and subsequently centrifuged at 13000 g and 4°C for 30 seconds. The pellets were re-suspended in buffer B (buffer A + 400 mM NaCl, 1% NP-40) and gently agitated using a Sarmix M2000 (Sarstedt, Nümbrecht, Germany) at 4°C for 15 min, followed by centrifugation (13000 g, 4°C, 5 min; Microfuge; Eppendorf, Hamburg, Germany). The concentration of soluble protein was determined according to Bradford using the Bio-Rad Protein Assay (Bio-Rad Laboratories, Munich, Germany).
An amount of 30 μg total protein of each sample and 8 μL of a biotinylated molecular weight standard (1:6 dilution) (Cell Signaling, Danvers, MA, USA) was separated by SDS-PAGE (12% gel) and afterwards electroblotted (150 V, 30 min) to nitrocellulose membrane (Peqlab, Erlangen, Germany). To prevent unspecific binding, the membranes were treated with milk powder (5% (m/v) in buffer (150 mM NaCl, 20 mM Tris, 0.1% Tween 20, pH = 7.6)) before incubation with anti-p53 rabbit mAb (dilution 1:1000) (Cell Signaling) and anti-histone H2B Ab (dilution 1:1000) (Cell Signaling) as loading control at 4°C for 14 hours. The primary antibodies and the “protein ladder” were simultaneously detected with a horseradish peroxidase (HRP)-coupled donkey anti rabbit mAb (dilution 1:1000) (Santa Cruz biotechnology, Heidelberg, Germany) or the anti-biotin HRP-coupled antibody (dilution 1:5000) (Cell Signaling), respectively. The incubation with the secondary antibody was performed at room temperature for 1 hour. The bands were detected by […] using the Pierce ECL Western Blotting Substrate (Thermo Scientific, Dreieich, Germany). After exposure, the x-ray film (Amersham Hyperfilm ECL, GE Healthcare, München, Germany) was developed (CAWOMAT 2000 IR, CAWO, Schrobenhausen, Germany) and analyzed using a GS-710 imaging densitometer and Quantity One V. 4 software (Bio-Rad Laboratories, Munich, Germany).
For orientation: In western blotting, separated proteins are transferred to a membrane and probed.

We go through four molecules from publication PMC4721923 (PLoS ONE, 2015).

For orientation: IC50 means the concentration that gives 50% inhibition. Low values mean greater potency in that assay, high ones weaker potency in that assay. In the case of `Cn1c(CCCC(=O)OCCN2CCCC2)nc2cc(N(CCCl)CCCl)ccc21` [Compound 5], the IC50 against OCT1 was found to be 0.35 ± 0.03 µM; in data set [1] (Homo sapiens, CAPAN-1, 96 h), 0.12 ± 0.02 µM. The “potency factor relative to TPA at OCT1” value on OCT1 (from IC50 values) is reported as “approximately 20”. For the same molecule, the p53 expression result in the data set with p53 in HT-29 cells was “increased the expression of p53”.

For `COC(=O)CCCc1nc2cc(N(CCCl)CCCl)ccc2n1C` [Compound 2], the IC50 against OCT1 came to 11.3 ± 1.9 µM; in data set [1] (Homo sapiens, CAPAN-1, 96 h), 0.6 ± 0.04 µM. Also, the p53 expression result with p53 in HT-29 cells was “increased the expression of p53”.

With `Cn1c(CCCC(=O)OCCN2CCOCC2)nc2cc(N(CCCl)CCCl)ccc21` [Compound 4], the IC50 on OCT1 is 10.1 ± 2.5 µM; in data set [1] (Homo sapiens, CAPAN-1, 96 h), 1.4 ± 0.01 µM. Besides, the p53 expression result in the data set on p53 in HT-29 cells is on record as “increased the expression of p53”.

The inhibition is the relative decrease from the control value, in per cent. A low value points to little suppression. With `Cn1c(CCCC(=O)O)nc2cc(N(CCCl)CCCl)ccc21` [Compound 1, bendamustine, reference compound], the IC50 against OCT1 was above 200 µM; in data set [1], 18.9 ± 4.5 µM; in data set [1] (Homo sapiens, CAPAN-1, 96 h), below 20 µM. Moreover, the inhibition at 5 min, 200 µM against OCT1 (human, 200 μM (highest examined concentration)) was 35%. In the data set on p53 in HT-29 cells, the p53 expression entry was “slight induction”.
